Reference: PMC9133015 (Nature Communications, 2022)
Where “and” joins values, the source holds several entries; their conditions need not be identical. Identical values can stand only once. Entries after “also recorded” stand apart in the source; their conditions may differ.

Legend:
DU145 xenograft [1] = test: In vivo antitumor activity, DU145 xenograft mouse model; parameters: species or system BALB/c nude mice; settings: for Tumor weight (Fig. 7c): individual mice; for Tumor volume (Fig. 7a): in cm³ (unit assumed)
DU145 cells [2] = test: Invasion assay (transwell); assay type: cell-based, human; settings: for Cell invasion (cell number): replicates
PC-3 cells [3] = test: Invasion assay (transwell); assay type: cell-based, human; settings: for Cell invasion (cell number): PC-3, replicates
22Rv1 cells [4] = test: Invasion assay (transwell); assay type: cell-based, human; settings: for Cell invasion (cell number): replicates
DU145 cells [5] = test: Cell cycle assay (PI flow cytometry); assay type: cell-based, human; settings: for Cell cycle percentages ( % ) G0/G1 / Cell cycle percentages ( % ) G2/M / Cell cycle percentages ( % ) S: replicates
PC-3 cells [6] = test: Cell cycle assay (PI flow cytometry); assay type: cell-based, human; settings: for Cell cycle percentages ( % ) G0/G1 / Cell cycle percentages ( % ) G2/M / Cell cycle percentages ( % ) S: PC-3, replicates
22Rv1 cells [7] = test: Cell cycle assay (PI flow cytometry); assay type: cell-based, human; settings: for Cell cycle percentages ( % ) G0/G1 / Cell cycle percentages ( % ) G2/M / Cell cycle percentages ( % ) S: replicates
DU145 xenograft [8] = test: H&E and Ki67 staining of xenograft tumor tissues; assay type: in vivo, BALB/c nude mice; settings: replicates
DU145 cells [9] = test: Colony formation assay; assay type: cell-based, human; settings: replicates
[10] = YK-2-69 (100 mg/kg), Day 37, individual mice, 100 mg/kg
[11] = YK-2-69 (100 mg/kg), Day 39, individual mice, 100 mg/kg
[12] = YK-2-69 (100 mg/kg), Day 41, individual mice, 100 mg/kg
[13] = YK-2-69 (100 mg/kg), Day 43, individual mice, 100 mg/kg
[14] = YK-2-69 (100 mg/kg), Day 45, individual mice, 100 mg/kg
[15] = YK-2-69 (100 mg/kg), Day 49, individual mice, 100 mg/kg
[16] = YK-2-69 (200 mg/kg), Day 1, individual mice, 200 mg/kg
[17] = YK-2-69 (200 mg/kg), Day 5, individual mice, 200 mg/kg

CCN1CCN(C(=O)c2ccc(Nc3ncc(F)c(-c4ccc5nc(N(C)C)sc5c4)n3)nc2)CC1 [YK-2-69]
body weight of mice (in words) (DU145 xenograft [1]; DU145 xenograft, 200 mg/kg orally once a day): increased gradually
antitumor activity (in words) (DU145 xenograft [1]; DU145 xenograft, 200 mg/kg orally once a day, seven weeks, 200 mg/kg): much better antitumor activities than both enzalutamide and palbociclib; also recorded: decreased the volume of tumor since the 31st day
Tumor weight (Fig. 7c) (DU145 xenograft [1]; High dose, in g (unit assumed)): 0.51 and 0.47 and 0.43 and 0.45 and 0.62 and 0.73 and 0.69 and 0.41
Tumor weight (Fig. 7c) (DU145 xenograft [1]; Low dose, in g (unit assumed)): 1.34 and 1.32 and 1.29 and 1.36 and 1.47 and 1.24 and 1.68 and 1.73 and 1.54 and 1.49
Body weight (Fig. 7b) (DU145 xenograft [1]; [10]): 26.5 and 24.2 and 25.7 and 25.5 (2×) and 24.9 and 24.6 and 25.2 and 25.6 and 26.6
Tumor volume (Fig. 7a) (DU145 xenograft [1]; [10]): 0.9849 and 0.8117 and 1.322 and 0.8631 and 0.9203 and 0.6445 and 0.8644 and 1.073 and 1.152 and 1.1772
Body weight (Fig. 7b) (DU145 xenograft [1]; [11]): 26.2 and 24.5 and 25.9 and 25.8 (2×) and 25.3 and 24.9 and 25.4 and 26 and 26.8
Tumor volume (Fig. 7a) (DU145 xenograft [1]; [11]): 0.957 and 0.8113 and 1.305 and 0.8461 and 0.9452 and 0.6025 and 0.7668 and 1.032 and 1.21 and 1.322
Body weight (Fig. 7b) (DU145 xenograft [1]; [12]): 26.4 and 24.6 and 26.1 and 25.8 and 25.6 (2×) and 25.2 and 26.3 and 26 and 26.5
Tumor volume (Fig. 7a) (DU145 xenograft [1]; [12]): 1.01 and 0.8586 and 1.367 and 0.9073 and 0.9955 and 0.6291 and 0.7765 and 1.063 and 1.256 and 1.304
Body weight (Fig. 7b) (DU145 xenograft [1]; [13]): 26.7 and 25 and 26.3 (2×) and 25.9 (2×) and 25.4 and 26.5 and 25.7 and 26.6
Tumor volume (Fig. 7a) (DU145 xenograft [1]; [13]): 1.081 and 0.9018 and 1.428 and 0.9736 and 1.066 and 0.6924 and 0.8141 and 1.105 and 1.304 and 1.393
Body weight (Fig. 7b) (DU145 xenograft [1]; [14]): 26.9 (2×) and 25.2 and 26.7 and 26.2 and 26.3 and 25.7 and 26.8 and 25.9 and 26.5
Tumor volume (Fig. 7a) (DU145 xenograft [1]; [14]): 1.137 and 0.9183 and 1.533 and 1.03 and 1.104 and 0.7734 and 0.8511 and 1.184 and 1.29 and 1.475
Tumor volume (Fig. 7a) (DU145 xenograft [1]; YK-2-69 (100 mg/kg), Day 47, individual mice, 100 mg/kg): 1.209 and 0.991 and 1.624 and 1.045 and 1.005 and 0.829 and 0.881 and 1.225 and 1.336 and 1.553
Body weight (Fig. 7b) (DU145 xenograft [1]; YK-2-69 (100 mg/kg), Day 47, individual mice, 100 mg/kg, in g (unit assumed)): 27.2 and 25.5 and 26.9 and 26.3 and 26.6 and 25.8 and 27.1 and 26 and 26.8 and 27.4
Body weight (Fig. 7b) (DU145 xenograft [1]; [15]): 27.5 and 25.8 and 27.1 (3×) and 26.6 and 26.9 and 26.1 and 27.3 and 26.2
Tumor volume (Fig. 7a) (DU145 xenograft [1]; [15]): 1.289 and 1.004 and 1.711 and 1.157 and 1.055 and 0.8821 and 0.8937 and 1.296 and 1.303 and 1.663
Body weight (Fig. 7b) (DU145 xenograft [1]; [16]): 19.6 and 20.5 and 20.2 (2×) and 19.9 and 20.3 and 20.7 and 21.4 and 21 and 20
Tumor volume (Fig. 7a) (DU145 xenograft [1]; [16]): 0.07862 and 0.07877 and 0.07202 and 0.06915 and 0.0797 and 0.06867 and 0.07232 and 0.09045 and 0.0645 and 0.09096
Tumor volume (Fig. 7a) (DU145 xenograft [1]; YK-2-69 (200 mg/kg), Day 3, individual mice, 200 mg/kg): 0.1045 and 0.1116 and 0.1049 and 0.08973 and 0.1165 and 0.1011 and 0.1007 and 0.1453 and 0.08834 and 0.1272
Body weight (Fig. 7b) (DU145 xenograft [1]; YK-2-69 (200 mg/kg), Day 3, individual mice, 200 mg/kg, in g (unit assumed)): 19.9 and 20.6 and 20.5 and 20.2 and 20.7 and 21.5 and 21.3 and 20.3 and 20.1
Body weight (Fig. 7b) (DU145 xenograft [1]; YK-2-69 (200 mg/kg), Day 3, individual mice, in g (unit assumed)): 21
Body weight (Fig. 7b) (DU145 xenograft [1]; [17]): 20.2 and 20.9 and 20.8 and 20.4 and 21.1 (2×) and 21.8 and 21.6 and 20.3 and 20.5
Tumor volume (Fig. 7a) (DU145 xenograft [1]; [17]): 0.1323 and 0.1488 and 0.1486 and 0.1179 and 0.1568 and 0.1343 and 0.1497 and 0.2074 and 0.1183 and 0.1702
Cell invasion (cell number) (DU145 cells [2]; DU145, 2 μM): 340 cell number and 358 cell number and 328 cell number
Cell invasion (cell number) (DU145 cells [2]; DU145, 4 μM): 258 cell number and 240 cell number and 252 cell number
Cell invasion (cell number) (DU145 cells [2]; DU145, 8 μM): 87 cell number and 91 cell number and 82 cell number
invasion (in words) (DU145 cells [2]; DU145 cells, dose-dependent): remarkably inhibited the migration and invasion
Cell invasion (cell number) (PC-3 cells [3]; 1 µM): 2987 cell number and 3005 cell number and 2946 cell number
Cell invasion (cell number) (PC-3 cells [3]; 2 µM): 2589 cell number and 2699 cell number and 2710 cell number
Cell invasion (cell number) (PC-3 cells [3]; 4 µM): 489 cell number and 503 cell number and 468 cell number
invasion (in words) (PC-3 cells [3]; PC-3 cells, dose-dependent): remarkably inhibited the migration and invasion
Cell invasion (cell number) (22Rv1 cells [4]; 22Rv1, 0.5 μM): 990 cell number and 970 cell number and 1020 cell number
Cell invasion (cell number) (22Rv1 cells [4]; 22Rv1, 1 μM): 730 cell number and 680 cell number and 710 cell number
Cell invasion (cell number) (22Rv1 cells [4]; 22Rv1, 2 μM): 520 cell number and 490 cell number and 509 cell number
invasion (in words) (22Rv1 cells [4]; 22Rv1 cells, dose-dependent): remarkably inhibited the migration and invasion
Cell cycle percentages ( % ) G0/G1 (DU145 cells [5]; DU145, 2 μM): 55.97% and 56.66% and 57.2%
Cell cycle percentages ( % ) G2/M (DU145 cells [5]; DU145, 2 μM): 25.7% and 23.86% and 21.92%
Cell cycle percentages ( % ) S (DU145 cells [5]; DU145, 2 μM): 18.33% and 19.48% and 20.88%
Cell cycle percentages ( % ) G0/G1 (DU145 cells [5]; DU145, 4 μM): 57.12% and 58.35% and 59.96%
Cell cycle percentages ( % ) G2/M (DU145 cells [5]; DU145, 4 μM): 23.02% and 22.58% and 21.06%
Cell cycle percentages ( % ) S (DU145 cells [5]; DU145, 4 μM): 19.86% and 19.07% and 18.98%
Cell cycle percentages ( % ) G0/G1 (DU145 cells [5]; DU145, 8 μM): 61.67% and 60.91% and 63.23%
Cell cycle percentages ( % ) G2/M (DU145 cells [5]; DU145, 8 μM): 18.53% and 21.24% and 18.93%
Cell cycle percentages ( % ) S (DU145 cells [5]; DU145, 8 μM): 19.8% and 17.85% and 17.84%
cell cycle (in words) (DU145 cells [5]; DU145 cells, concentration-dependent): arrested cell cycle at the G0/G1 phase
Cell cycle percentages ( % ) G0/G1 (PC-3 cells [6]; 0.5 µM): 55.96% and 58.42% and 57.82%
Cell cycle percentages ( % ) G0/G1 (PC-3 cells [6]; 1 µM): 58.52% and 60.06% and 62.96%
Cell cycle percentages ( % ) G0/G1 (PC-3 cells [6]; 2 µM): 64.67% and 62.48% and 65.02%
Cell cycle percentages ( % ) G2/M (PC-3 cells [6]; 0.5 µM): 27.56% and 26.05% and 24.61%
Cell cycle percentages ( % ) G2/M (PC-3 cells [6]; 1 µM): 26.02% and 25.73% and 24.02%
Cell cycle percentages ( % ) G2/M (PC-3 cells [6]; 2 µM): 24.12% and 24.24% and 22.16%
Cell cycle percentages ( % ) S (PC-3 cells [6]; 0.5 µM): 16.48% and 15.53% and 17.57%
Cell cycle percentages ( % ) S (PC-3 cells [6]; 1 µM): 15.46% and 14.21% and 13.02%
Cell cycle percentages ( % ) S (PC-3 cells [6]; 2 µM): 11.21% and 13.28% and 12.82%
cell cycle (in words) (PC-3 cells [6]; PC-3 cells, concentration-dependent): arrested cell cycle at the G0/G1 phase
Cell cycle percentages ( % ) G0/G1 (22Rv1 cells [7]; 22Rv1, 0.5 μM): 58.59% and 61.06% and 63.23%
Cell cycle percentages ( % ) G2/M (22Rv1 cells [7]; 22Rv1, 0.5 μM): 21.63% and 20.2% and 19.61%
Cell cycle percentages ( % ) S (22Rv1 cells [7]; 22Rv1, 0.5 μM): 19.78% and 18.74% and 17.16%
Cell cycle percentages ( % ) G0/G1 (22Rv1 cells [7]; 22Rv1, 1 μM): 66.26% and 67.95% and 69.26%
Cell cycle percentages ( % ) G2/M (22Rv1 cells [7]; 22Rv1, 1 μM): 16.83% and 16.42% and 15%
Cell cycle percentages ( % ) S (22Rv1 cells [7]; 22Rv1, 1 μM): 16.91% and 15.43% and 15.74%
Cell cycle percentages ( % ) G0/G1 (22Rv1 cells [7]; 22Rv1, 2 μM): 71.88% and 73.05% and 74.35%
Cell cycle percentages ( % ) G2/M (22Rv1 cells [7]; 22Rv1, 2 μM): 13.63% and 11.7% and 11.68%
Cell cycle percentages ( % ) S (22Rv1 cells [7]; 22Rv1, 2 μM): 14.49% and 15.25% and 13.97%
cell cycle (in words) (22Rv1 cells [7]; 22Rv1 cells, concentration-dependent): arrested cell cycle at the G0/G1 phase
Positive rate ( % ) (Fig. 7f) (DU145 xenograft [8]; DU145, High dose): 15.32% and 14.77% and 16.1%
Positive rate ( % ) (Fig. 7f) (DU145 xenograft [8]; DU145, Low dose): 20.24% and 19.5% and 21.1%
Colony formation (cell number) (DU145 cells [9]; DU145, 2 μM): 70 cell number and 67 cell number and 77 cell number
Colony formation (cell number) (DU145 cells [9]; DU145, 4 μM): 40 cell number and 38 cell number and 35 cell number
